According to patent US20240228469A1, “PCSK9 INHIBITORS AND METHODS OF USE THEREOF” (AstraZeneca AB, priority 2022, published 2024):

Assays:
[1] = molecular target: T1, potassium ion channel hERG (Homo sapiens, UniProt Q12809); assay: Assay 5 hERG assay (patch clamp, CHO cells over-expressing hERG); format: cell-based; settings: SyncroPatch 384PE, room temperature, geometric mean, read-out: Assay 5 (hERG Hu CHO if EPh CR-Syncro) GMean IC50
T1 construct: expressed in transfected cells; host or cells: Chinese hamster ovary K1 (CHO)
T1 sequence (Q12809 whole entry): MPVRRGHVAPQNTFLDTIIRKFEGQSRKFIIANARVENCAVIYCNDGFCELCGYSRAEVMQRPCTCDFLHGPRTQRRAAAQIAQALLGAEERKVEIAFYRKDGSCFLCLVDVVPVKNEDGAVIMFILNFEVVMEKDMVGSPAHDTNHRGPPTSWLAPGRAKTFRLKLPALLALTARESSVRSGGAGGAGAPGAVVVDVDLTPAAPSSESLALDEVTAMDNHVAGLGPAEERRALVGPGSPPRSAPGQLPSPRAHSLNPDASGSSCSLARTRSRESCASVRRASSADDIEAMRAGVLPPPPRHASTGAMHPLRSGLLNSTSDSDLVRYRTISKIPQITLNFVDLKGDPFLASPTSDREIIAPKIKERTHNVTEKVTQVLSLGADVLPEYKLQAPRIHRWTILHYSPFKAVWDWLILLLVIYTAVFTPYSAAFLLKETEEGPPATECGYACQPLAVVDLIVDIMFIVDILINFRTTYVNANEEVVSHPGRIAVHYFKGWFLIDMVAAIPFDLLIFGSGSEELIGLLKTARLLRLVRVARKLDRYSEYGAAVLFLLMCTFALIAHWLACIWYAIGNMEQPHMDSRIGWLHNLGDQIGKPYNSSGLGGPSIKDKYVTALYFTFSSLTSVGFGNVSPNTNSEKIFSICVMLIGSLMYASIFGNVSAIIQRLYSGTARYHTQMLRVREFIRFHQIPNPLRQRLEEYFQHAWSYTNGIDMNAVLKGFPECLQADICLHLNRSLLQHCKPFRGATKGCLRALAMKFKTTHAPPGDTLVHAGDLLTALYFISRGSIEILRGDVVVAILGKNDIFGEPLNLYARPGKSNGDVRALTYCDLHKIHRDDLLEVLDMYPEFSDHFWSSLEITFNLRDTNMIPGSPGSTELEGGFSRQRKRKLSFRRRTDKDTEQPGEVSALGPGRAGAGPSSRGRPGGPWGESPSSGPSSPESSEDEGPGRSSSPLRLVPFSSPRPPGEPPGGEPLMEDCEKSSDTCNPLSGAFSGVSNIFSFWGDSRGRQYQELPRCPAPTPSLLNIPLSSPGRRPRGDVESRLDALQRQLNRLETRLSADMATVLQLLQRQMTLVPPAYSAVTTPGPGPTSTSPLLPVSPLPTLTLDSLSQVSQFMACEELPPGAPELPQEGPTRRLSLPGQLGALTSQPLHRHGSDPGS
Method: This assay (human Ether-d-go-go-Related Gene) measures activity of the compounds at the potassium ion channel hERG (human Ether-d-go-go-Related Gene).
Experiments were performed on the SyncroPatch 384PE high throughput patch clamp platform at room temperature and medium resistance chips with 4 patch holes per site. Chinese hamster ovary K1 (CHO) cell lines over-expressing the ion channel of choice (hERG) were used in assay-ready format and kept in liquid nitrogen or were used from live culture. Cells were either thawed and diluted in HBSS or were detached from flasks and resuspended in HBSS. HBSS comprised 140 mM NaCl, 4 mM KCl, 10 mM HEPES and 5 mM Glucose (pH7.4). The internal patch clamp solution was KF 120 mM, KCl 20 mM, HEPES 10 mM, EGTA 10 mM, and 25 PM Escin (pH 7.2). After the sealing process was complete, the external solution was exchanged for external patch clamp solution comprising NaCl 80 mM, KCl 4 mM, HEPES 10 mM, CaCl2 2 mM, MgCl2 1 mM, glucose 5 mM, and NMDG 60 mM (pH 7.4). All solutions were stored at room temperature, except Escin, which was stored at 4° C. All test compounds were dispensed in greiner-bio 384 well plates and tested in a 6 point cumulative assay (final DMSO concentration 0.33%). Only wells that passed previously agreed acceptance criteria for this platform were used in this analysis (30 MegaOhm seal resistance, Z prime >0.4 and current size >0.2 nA). […]

[2] = molecular target: GSK3β (Glycogen synthase kinase-3 beta) (Homo sapiens, UniProt P49841); assay: Assay 6 GSK3β assay (ThermoFisher Z-Lyte FRET); format: biochemical; settings: ATP Conc: 10 μM, geometric mean; read-out: Assay 6 (GSK3β FRET-Z-Lyte Cr) GMean IC50
Sequence of GSK3β (Glycogen synthase kinase-3 beta) (P49841 whole entry): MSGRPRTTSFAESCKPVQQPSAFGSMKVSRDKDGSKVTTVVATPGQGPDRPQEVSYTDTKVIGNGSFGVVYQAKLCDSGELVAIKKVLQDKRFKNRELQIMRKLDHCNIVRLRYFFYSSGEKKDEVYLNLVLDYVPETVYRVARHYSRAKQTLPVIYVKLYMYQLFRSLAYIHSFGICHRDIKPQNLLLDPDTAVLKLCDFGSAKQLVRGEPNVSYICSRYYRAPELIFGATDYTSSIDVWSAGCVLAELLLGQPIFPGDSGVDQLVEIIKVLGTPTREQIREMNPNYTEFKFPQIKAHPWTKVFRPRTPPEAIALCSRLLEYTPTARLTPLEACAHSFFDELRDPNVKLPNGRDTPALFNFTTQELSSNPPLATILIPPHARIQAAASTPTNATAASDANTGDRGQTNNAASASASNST
Method: This assay measures the activity of the compounds at GSK33 (Glycogen synthase kinase-3 beta).
The test compounds were screened in 1% DMSO (final) in the well. For 10 point titrations, 3-fold serial dilutions are conducted from the starting concentration of 10 PM.
Bar-coded Corning, low volume NBS, black 384-well plate • 1. 2.5 μL—4× Test Compound or 100 nL 100× plus 2.4 μL kinase buffer • 2. 5 μL—2× Peptide/Kinase Mixture • 3. 2.5 μL—4×ATP Solution • 4. 30-second plate shake • 5. 60-minute Kinase Reaction incubation at room temperature • 6. 5 μL—Development Reagent Solution • 7. 30-second plate shake • 8. 60-minute Development Reaction incubation at room temperature • 9. Read on fluorescence plate reader and analyse the data
In step 2, the 2×GSK3β (GSK3 beta)/Ser/Thr (Glycogen synthase kinase-3 beta/Serine/Threonine) 09 mixture is prepared in 50 mM HEPES (4-(2-hydroxyethyl)-1-piperazineethanesulfonic acid) pH 7.5, 0.01% BRIJ-35, 10 mM MgCl2, 1 mM EGTA (egtazic acid). The final 10 μL Kinase Reaction consists of 0.22-0.92 ng GSK3β (GSK3 beta) and 2 PM Ser/Thr 09 in 50 mM HEPES pH 7.5, 0.01% BRIJ-35, 10 mM MgCl2, 1 mM EGTA.
In step 3 the ATP Solution is diluted to a 4× working concentration in Kinase Buffer (50 mM HEPES pH 7.5, 0.01% BRIJ-35, 10 mM MgCl2, 1 mM EGTA).
In Step 6 the Development Reagent is diluted 1:512 in Development Buffer (10× Novel PKC Lipid Mix: 2 mg/mL Phosphatidyl Serine, 0.2 mg/mL DAG in 20 mM HEPES, pH 7.4, 0.3% CHAPS).
SelectScreen® Kinase Profiling Service uses XLfit from IDBS. The dose response curve is curve fit to model number 205 (sigmoidal dose-response model).

PCSK9 [3] = molecular target: T2, PCSK9 (Homo sapiens, UniProt Q8NBP7, G670E/V474I); assay: biochemical
T2 sequence (Q8NBP7 with tags, fused parts or gaps V474I/G670E): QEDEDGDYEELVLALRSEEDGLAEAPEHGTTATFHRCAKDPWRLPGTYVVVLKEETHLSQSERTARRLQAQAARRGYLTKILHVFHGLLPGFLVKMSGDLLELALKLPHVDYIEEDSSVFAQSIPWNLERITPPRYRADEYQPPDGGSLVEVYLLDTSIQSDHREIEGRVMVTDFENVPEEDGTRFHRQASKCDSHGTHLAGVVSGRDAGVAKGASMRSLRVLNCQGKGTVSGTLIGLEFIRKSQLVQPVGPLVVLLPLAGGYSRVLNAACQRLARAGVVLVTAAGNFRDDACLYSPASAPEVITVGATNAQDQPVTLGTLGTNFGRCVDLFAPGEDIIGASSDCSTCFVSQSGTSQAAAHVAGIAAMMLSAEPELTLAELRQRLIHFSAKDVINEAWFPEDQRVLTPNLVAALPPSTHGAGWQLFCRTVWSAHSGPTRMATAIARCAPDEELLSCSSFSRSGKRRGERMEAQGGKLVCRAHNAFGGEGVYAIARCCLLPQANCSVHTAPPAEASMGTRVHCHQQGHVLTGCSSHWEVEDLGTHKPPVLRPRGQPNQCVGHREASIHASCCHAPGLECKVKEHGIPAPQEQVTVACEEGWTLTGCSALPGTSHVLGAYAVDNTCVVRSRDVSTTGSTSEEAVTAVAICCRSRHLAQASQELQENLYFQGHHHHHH

PCSK9 [4] = molecular target: T2, PCSK9; assay: Assay 3 PCSK9 LDL-C uptake assay in HepG2 cells; format: cell-based; parameters: TEV site (C); His6 (C); host or cells: added to HepG2 (ATCC #HB-8065); settings: 125 nM PCSK9, pHrodo Red-LDL, read-out: Assay 3 LDL uptake potency
From the text: This assay measures for PCSK9 antagonist activity based on a test compound's capacity to restore LDL-C-uptake in HepG2 cells. The assay is based on exogenous PCSK9 and LDL-C complexed with a pH-sensitive dye. Outside the cells, at neutral pH, the pHrodo Red-LDL is dimly fluorescent but upon LDLR mediated endocytosis it fluoresces brightly. PCSK9 traffics the LDLR to intracellular degradation and reduces uptake of LDL-C. Inhibition of PCSK9 reduces LDLR degradation and the increased LDL-C uptake is quantified by fluorescence microscopy.
• Cell medium: MEM supplemented with 10% FBS, 1×NEAA and Sodium Pyruvate • Assay medium: OptiMem supplemented with penicillin/streptomycin • Cells: HepG2 (ATCC #HB-8065)
• 1. Cryopreserved HepG2 cells were thawed in assay medium and centrifuged for 5 min at 250 g. Supernatant was discarded and the cell pellet resuspended in cell medium and counted with a Nucleocounter. Cells were again centrifuged 5 min at 250 g and the pellet was resuspended to 500000 cells/mL in assay medium. • 2. 20 μL of above cell mix was dispensed into black μclear TC treated 384 well plates with Multidrop Combi and left at room temperature for 20 minutes. • 3. Plates were incubated at 37° C., 5% CO2 for 24 h
• 1. Test compounds were prepared in concentration response in DMSO with a half-log dilution factor in DMSO in Echo 384 LDV plates starting at 10 mM. • 2. 30 nL of above test compounds were dispensed with Echo 655 to cells for a top concentration of 10 μM • 3. 10 μL PCSK9 in assay medium was dispensed to cells with Multidrop Combi for 125 nM final concentration in the wells. • 4. Plates were incubated at 37° C., 5% CO2 for 24 h
• 1. 10 μL pHrodo Red-LDL in assay medium was dispensed to cells with Multidrop Combi for […] • 2. Plates were incubated at 37° C., 5% CO2 and imaged with the Incucyte S3 after 4 h and 24 h
Image data was processed using Incucyte 2021, a software to identify cells and red fluorescent intensity. Screener was used to further process data. Data was normalized as % effect of the signal between median values of the on-plate controls of DMSO and 100 nM Evolocumab according to the formula % effect=−100*(x−DMSO)/(Evolocumab−DMSO) where x equals the measured signal. Concentration response data of the normalized values were fitted using a four-parameter logistic fit.

SMILES	IC50 [1]	IC50 [2]	IC50 (PCSK9 [3])	EC50 (PCSK9 [4])
Cc1cnc(N[C@H]2CC[C@H](Nc3ccc(-n4cccc(C)c4=O)cn3)C2)nn1 (racemic) [Example 173, rel-3-Methyl-6′-(((1 R,3R)-3-((6-methyl-1,2,4-triazin-3-yl)amino)cyclopentyl)amino)-2H-[1,3′-bipyridin]-2-one]	> 40100 nM	1950 nM	4.2 nM	100 nM
COc1ccc(=O)n(-c2ccc(NCC(CCO)CNc3ncc(C)nn3)nc2)c1 (racemic) [Example 317, rac-6′-((4-Hydroxy-2-(((6-methyl-1,2,4-triazin-3-yl)amino)methyl)butyl)amino)-5-methoxy-2H-[1,3′-bipyridin]-2-one]	> 40000 nM	–	4430 nM	> 800 nM
O=c1ccc(-c2c[nH]nn2)cn1-c1ccc(N[C@H]2CC[C@H](Nc3ncc(C4CC4)nn3)C2)nc1 [Example 122, 6′-(((1S,3S)-3-((6-Cyclopropyl-1,2,4-triazin-3-yl)amino)cyclopentyl)amino)-5-(1H-1,2,3-triazol-4-yl)-2H-[1,3′-bipyridin]-2-one]	> 40100 nM	6170 nM	1.4 nM	100 nM
O=c1ccc(-c2cn[nH]c2)cn1-c1ccc(N[C@H]2CC[C@H](Nc3ncc(C4CC4)nn3)C2)nc1 [Example 123, 6′-(((1S,3S)-3-((6-Cyclopropyl-1,2,4-triazin-3-yl)amino)cyclopentyl)amino)-5-(1H-pyrazol-4-yl)-2H-[1,3′-bipyridin]-2-one]	> 40100 nM	8840 nM	1.4 nM	100 nM
O=c1ccc(-c2nnn[nH]2)cn1-c1ccc(N[C@H]2CC[C@H](Nc3ncc(C4CC4)nn3)C2)nc1 [Example 124, 6′-(((1S,3S)-3-((6-Cyclopropyl-1,2,4-triazin-3-yl)amino)cyclopentyl)amino)-5-(1H-tetrazol-5-yl)-2H-[1,3′-bipyridin]-2-one]	> 40100 nM	1070 nM	1 nM	100 nM
Cn1c(=O)n(-c2ccc(N[C@H]3CC[C@H](Nc4ncc(C5CC5)nn4)C3)nc2)c2cc(P(C)(C)=O)ccc21 [Example 125, 3-(6-(((1S,3S)-3-((6-Cyclopropyl-1,2,4-triazin-3-yl)amino)cyclopentyl)amino)pyridin-3-yl)-5-(dimethylphosphoryl)-1-methyl-1,3-dihydro-2H-benzo[d]imidazol-2-one]	> 40100 nM	> 10000 nM	2.7 nM	100 nM
Cc1ccc(=O)n(-c2ccc(N[C@H]3CC[C@H](Nc4ncc(C)nn4)C3)nc2)c1 [Example 130, 5-Methyl-6′-(((1S,3S)-3-((6-methyl-1,2,4-triazin-3-yl)amino)cyclopentyl)amino)-2H-[1,3′-bipyridin]-2-one]	> 40100 nM	5700 nM	14 nM	200 nM
Cc1cnc(N[C@H]2CC[C@H](Nc3ccc(-n4cccc(C#N)c4=O)cn3)C2)nn1 [Example 136, 6′-(((1S,3S)-3-((6-Methyl-1,2,4-triazin-3-yl)amino)cyclopentyl)amino)-2-oxo-2H-[1,3′-bipyridine]-3-carbonitrile]	> 40100 nM	> 10000 nM	3 nM	200 nM
Cc1cnc(N[C@H]2CC[C@H](Nc3ccc(-n4cccc(F)c4=O)cn3)C2)nn1 [Example 137, 3-Fluoro-6′-(((1S,3S)-3-((6-methyl-1,2,4-triazin-3-yl)amino)cyclopentyl)amino)-2H-[1,3′-bipyridin]-2-one]	> 40100 nM	3520 nM	10 nM	700 nM
Cc1cnc(N[C@H]2CC[C@H](Nc3ccc(-n4cccc(OC(F)(F)F)c4=O)cn3)C2)nn1 [Example 138, 6′-(((1S,3S)-3-((6-Methyl-1,2,4-triazin-3-yl)amino)cyclopentyl)amino)-3-(trifluoromethoxy)-2H-[1,3′-bipyridin]-2-one]	> 40100 nM	> 10000 nM	4 nM	200 nM
